Results as given in US20140005163A1 (NOVARTIS AG, priority 2010, published 2014).

Assays:
PI3K beta = target: T1, PI3K beta (Homo sapiens, UniProt P42338); assay: PI3K beta kinase assay (Kinase-Glo luminescence); assay type: biochemical
T1 construct: for the full-length p110-b subunit are generated and fused by overlapping PCR; p85(iSH2) fusion partner (see partner chain) (N); His tag (C); made in house; host or cells: baculovirus; Tn5 (Trichoplusia ni) or TiniPro insect cells
Procedure, shortened: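 Residual ATP after a 60 min room-temperature reaction is quantified by Kinase-Glo luminescence. Enzyme: 25 nM BV-949 (p85 iSH2–linker–full-length p110β); substrates 1 μM ATP, 10 μg/mL PI; buffer Tris pH 7.5, MgCl2, NaCl, CHAPS, DTT. Eight concentrations per compound, four-parameter logistic IC50.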

PI3K delta = target: T2, PI3K delta (Homo sapiens, UniProt O00329); assay: PI3K delta kinase assay (Kinase-Glo luminescence); assay type: biochemical
T2 construct: for the full-length p110-d subunit are generated and fused by overlapping PCR; p85(iSH2) fusion partner (see partner chain) (N); His tag (C); made in house; host or cells: baculovirus; Tn5 (Trichoplusia ni) or TiniPro insect cells
Procedure, shortened: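 ATP 1 μM, PI 10 μg/mL, PI3Kδ construct BV1060 10 nM (final); 10 mM Tris pH 7.5, 3 mM MgCl2, 50 mM NaCl, 0.05% CHAPS, 1 mM DTT; 60 min RT; Kinase-Glo stop, luminescence.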

T2 sequence (O00329 with tags, fused parts or gaps limits assumed): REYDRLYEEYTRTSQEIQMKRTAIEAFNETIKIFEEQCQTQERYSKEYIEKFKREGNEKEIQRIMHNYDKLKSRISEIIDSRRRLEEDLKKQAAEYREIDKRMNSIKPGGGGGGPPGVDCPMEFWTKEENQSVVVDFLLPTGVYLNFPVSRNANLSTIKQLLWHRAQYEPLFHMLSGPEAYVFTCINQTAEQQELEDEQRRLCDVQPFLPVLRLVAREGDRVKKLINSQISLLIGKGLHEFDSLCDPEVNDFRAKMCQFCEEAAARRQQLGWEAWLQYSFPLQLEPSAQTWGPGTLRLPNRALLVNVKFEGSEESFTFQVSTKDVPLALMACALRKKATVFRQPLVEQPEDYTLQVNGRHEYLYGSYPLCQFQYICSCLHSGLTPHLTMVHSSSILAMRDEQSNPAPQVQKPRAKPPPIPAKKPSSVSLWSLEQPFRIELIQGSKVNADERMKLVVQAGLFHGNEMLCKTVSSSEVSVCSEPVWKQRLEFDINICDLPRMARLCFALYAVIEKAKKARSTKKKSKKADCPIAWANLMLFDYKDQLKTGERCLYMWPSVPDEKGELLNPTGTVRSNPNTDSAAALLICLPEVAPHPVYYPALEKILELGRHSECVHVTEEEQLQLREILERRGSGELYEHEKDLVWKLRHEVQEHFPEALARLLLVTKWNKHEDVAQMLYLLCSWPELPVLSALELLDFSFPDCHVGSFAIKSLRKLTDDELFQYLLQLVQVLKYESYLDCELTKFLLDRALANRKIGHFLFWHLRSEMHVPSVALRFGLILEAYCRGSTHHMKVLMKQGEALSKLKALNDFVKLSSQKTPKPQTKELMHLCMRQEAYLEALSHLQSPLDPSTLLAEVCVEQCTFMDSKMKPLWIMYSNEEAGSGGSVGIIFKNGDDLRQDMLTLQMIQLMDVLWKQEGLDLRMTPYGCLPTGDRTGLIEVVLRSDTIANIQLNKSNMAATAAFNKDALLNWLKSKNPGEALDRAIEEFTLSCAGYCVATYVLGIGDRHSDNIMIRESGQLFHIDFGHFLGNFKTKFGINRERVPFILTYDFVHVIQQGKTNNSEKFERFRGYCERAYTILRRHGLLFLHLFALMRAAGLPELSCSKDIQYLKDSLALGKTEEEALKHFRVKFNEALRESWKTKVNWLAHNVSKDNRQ
T1 sequence (P42338 with tags, fused parts or gaps limits assumed): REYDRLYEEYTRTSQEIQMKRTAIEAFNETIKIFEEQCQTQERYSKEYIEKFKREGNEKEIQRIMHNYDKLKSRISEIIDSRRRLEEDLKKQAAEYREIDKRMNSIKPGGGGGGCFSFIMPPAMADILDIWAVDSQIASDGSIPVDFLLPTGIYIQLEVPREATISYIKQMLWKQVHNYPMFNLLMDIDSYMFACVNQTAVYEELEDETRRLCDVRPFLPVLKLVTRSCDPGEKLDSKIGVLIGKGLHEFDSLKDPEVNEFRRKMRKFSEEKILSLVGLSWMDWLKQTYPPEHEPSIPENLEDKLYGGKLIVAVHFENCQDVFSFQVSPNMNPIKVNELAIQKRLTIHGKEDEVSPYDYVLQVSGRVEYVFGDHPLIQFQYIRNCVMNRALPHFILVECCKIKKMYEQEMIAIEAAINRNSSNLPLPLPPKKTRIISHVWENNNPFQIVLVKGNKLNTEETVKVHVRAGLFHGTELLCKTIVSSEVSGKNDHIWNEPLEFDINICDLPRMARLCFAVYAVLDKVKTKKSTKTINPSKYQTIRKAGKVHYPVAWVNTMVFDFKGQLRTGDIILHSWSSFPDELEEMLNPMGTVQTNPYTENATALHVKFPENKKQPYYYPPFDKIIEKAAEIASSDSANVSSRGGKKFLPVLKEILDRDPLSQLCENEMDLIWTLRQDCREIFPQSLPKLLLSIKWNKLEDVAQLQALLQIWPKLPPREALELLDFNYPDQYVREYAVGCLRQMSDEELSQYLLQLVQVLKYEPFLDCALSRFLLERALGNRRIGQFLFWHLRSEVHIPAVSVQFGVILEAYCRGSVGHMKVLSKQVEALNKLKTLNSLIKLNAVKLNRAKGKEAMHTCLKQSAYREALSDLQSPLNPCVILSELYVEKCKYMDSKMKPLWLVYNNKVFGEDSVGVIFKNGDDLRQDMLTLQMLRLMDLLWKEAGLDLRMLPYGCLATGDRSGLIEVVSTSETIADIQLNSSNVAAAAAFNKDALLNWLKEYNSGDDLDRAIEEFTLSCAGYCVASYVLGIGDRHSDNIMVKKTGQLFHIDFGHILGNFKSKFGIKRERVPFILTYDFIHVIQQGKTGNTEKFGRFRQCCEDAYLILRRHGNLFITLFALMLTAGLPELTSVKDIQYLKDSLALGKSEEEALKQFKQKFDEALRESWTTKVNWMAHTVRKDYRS

| SMILES | IC50 (PI3K beta) [nM] | IC50 (PI3K delta) [nM] |
| --- | --- | --- |
| CCn1cc(-n2c(=O)n(C)c3cnc4ccc(-c5cnc(F)c(NC)c5)cc4c32)c(C)n1 [Example 150.1, 1-(1-Ethyl-3-methyl-1H-pyrazol-4-yl)-8-(6-fluoro-5-methylamino-pyridin-3-yl)-3-methyl-1,3-dihydro-imidazo[4,5-c]quinolin-2-one] | 17 | 8 |
| CCOc1cc(-c2ccc3ncc4c(c3c2)n(-c2cn(CCO)nc2C)c(=O)n4C)cnc1C [Example 211.2, 8-(5-Ethoxy-6-methyl-pyridin-3-yl)-1-[1-(2-hydroxy-ethyl)-3-methyl-1H-pyrazol-4-yl]-3-methyl-1,3-dihydro-imidazo[4,5-c]quinolin-2-one] | 17 | 9 |
| CCNc1cc(-c2ccc3ncc4c(c3c2)n(-c2cn(C(C)C)nc2C)c(=O)n4C)cnc1CO [Example 155.3, 8-(5-Ethylamino-6-hydroxymethyl-pyridin-3-yl)-1-(1-isopropyl-3-methyl-1H-pyrazol-4-yl)-3-methyl-1,3-dihydro-imidazo[4,5-c]quinolin-2-one] | 46 | 10 |
| COCCOc1cc(-c2ccc3ncc4c(c3c2)n(-c2cn(C)nc2C)c(=O)n4C)cnc1CO [Example 244, 1-(1,3-Dimethyl-1H-pyrazol-4-yl)-8-[6-hydroxymethyl-5-(2-methoxy-ethoxy)-pyridin-3-yl]-3-methyl-1,3-dihydro-imidazo[4,5-c]quinolin-2-one] | 188 | 17 |
| CCNc1cc(-c2ccc3ncc4c(c3c2)n(-c2cn(CC)nc2C)c(=O)n4C)cnc1COC [Example 157, 8-(5-Ethylamino-6-methoxymethyl-pyridin-3-yl)-1-(1-ethyl-3-methyl-1H-pyrazol-4-yl)-3-methyl-1,3-dihydro-imidazo[4,5-c]quinolin-2-one] | 28 | 9 |
| Cc1nn(CCO)cc1-n1c(=O)n(C)c2cnc3ccc(-c4cncc(N5CCOCC5)c4)cc3c21 [Example 175.3, 1-[1-(2-Hydroxy-ethyl)-3-methyl-1H-pyrazol-4-yl]-3-methyl-8-(5-morpholin-4-yl-pyridin-3-yl)-1,3-dihydro-imidazo[4,5-c]quinolin-2-one] | 559 | 126 |

Continued, values first:

| IC50 (PI3K beta) [nM] | IC50 (PI3K delta) [nM] | SMILES |
| --- | --- | --- |
| 33 | 15 | CCN(C)c1cncc(-c2ccc3ncc4c(c3c2)n(-c2cn(C)nc2C)c(=O)n4C)c1 [Example 176, 1-(1,3-Dimethyl-1H-pyrazol-4-yl)-8-[5-(ethyl-methyl-amino)-pyridin-3-yl]-3-methyl-1,3-dihydro-imidazo[4,5-c]quinolin-2-one] |
| 68 | 17 | Cc1nn(C(C)C)cc1-n1c(=O)n(C)c2cnc3ccc(-c4cnc(F)c(N)c4)cc3c21 [Example 149.1, 8-(5-Amino-6-fluoro-pyridin-3-yl)-1-(1-isopropyl-3-methyl-1H-pyrazol-4-yl)-3-methyl-1,3-dihydro-imidazo[4,5-c]quinolin-2-one] |
| 28 | 4 | Cc1ncc(-c2ccc3ncc4c(c3c2)n(-c2cn(C)nc2Cl)c(=O)n4C)cc1N [Example 88.1, 8-(5-Amino-6-methyl-pyridin-3-yl)-1-(3-chloro-1-methyl-1H-pyrazol-4-yl)-3-methyl-1,3-dihydro-imidazo[4,5-c]quinolin-2-one] |
| 47 | 7 | CCOc1cc(-c2ccc3ncc4c(c3c2)n(-c2cn(C)nc2C)c(=O)n4C)cnc1CO [Example 243, 1-(1,3-Dimethyl-1H-pyrazol-4-yl)-8-(5-ethoxy-6-hydroxymethyl-pyridin-3-yl)-3-methyl-1,3-dihydro-imidazo[4,5-c]quinolin-2-one] |
| 41 | 15 | Cc1nn(C)cc1-n1c(=O)n(C)c2cnc3ccc(-c4ccc(N)nc4)cc3c21 [Example 23.1, 8-(6-Amino-pyridin-3-yl)-1-(1,3-dimethyl-1H-pyrazol-4-yl)-3-methyl-1,3-dihydro-imidazo[4,5-c]quinolin-2-one] |
